The text below walks through data of paper PMC7486443, “Generation of Phenothiazine with Potent Anti-TLK1 Activity for Prostate Cancer Therapy” (iScience, 2020).

Some targets named below: CSNK1G1 (Homo sapiens, UniProt Q9HCP0); EGFR(L747-T751del,Sins) (Homo sapiens, UniProt P00533, DEL747-750/T751S); EGFR(L858R) (Homo sapiens, UniProt P00533, L858R); GRK1 (Homo sapiens, UniProt Q15835); HUNK (Homo sapiens, UniProt P57058); NEK4 (Homo sapiens, UniProt P51957); NEK9 (Homo sapiens, UniProt Q8TD19); PAK2 (Homo sapiens, UniProt Q13177); PRKD1 (Homo sapiens, UniProt Q15139); RET(V804L) (Homo sapiens, UniProt P07949, V804L); ROCK1 (Homo sapiens, UniProt Q13464); TSSK3 (Homo sapiens, UniProt Q96PN8).

Common to all, as to assay: biochemical
Common to all, as to parameters: DiscoverX KINOMEscan scanMAX competition binding panel, single concentration, percent of control; remaining binding: dose or concentration left out as unconfirmed
What all share (details): KINOMEscan binding, percent of control; read-out: Table S4_SCANMAX REPORT - related to Fig. 1 / Percent Control

Test [1] addresses T1, ABL1(F317L)-phosphorylated (Homo sapiens, UniProt P00519, F317L).
T1 construct: phosphorylated

Another test has as its target T2, CDC2L5 (Homo sapiens, UniProt Q14004).
T2 construct: gene CDK13

The target of the next test is T3, DRAK2 (Homo sapiens, UniProt O94768).
T3 construct: gene STK17B
T3 sequence (O94768 whole entry): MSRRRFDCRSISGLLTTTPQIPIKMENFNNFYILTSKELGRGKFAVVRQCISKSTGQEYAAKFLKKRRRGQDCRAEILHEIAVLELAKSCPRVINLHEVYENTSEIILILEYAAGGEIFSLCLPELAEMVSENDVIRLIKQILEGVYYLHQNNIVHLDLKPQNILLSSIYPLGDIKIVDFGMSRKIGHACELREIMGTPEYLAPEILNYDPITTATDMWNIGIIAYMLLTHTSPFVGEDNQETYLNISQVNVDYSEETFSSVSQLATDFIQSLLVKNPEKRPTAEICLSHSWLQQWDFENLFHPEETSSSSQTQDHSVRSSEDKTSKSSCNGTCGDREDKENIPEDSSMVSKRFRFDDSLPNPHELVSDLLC

For the next test, the target named is T4, MRCKB (Homo sapiens, UniProt Q9Y5S2).
T4 construct: gene CDC42BPB

A further test has as its target T5, PCTK1 (Homo sapiens, UniProt Q00536).
T5 construct: gene CDK16

A further test deals with T6, p38-gamma (Homo sapiens, UniProt P53778).
T6 construct: gene MAPK12

ROCK1, sequence (Q13464 whole entry): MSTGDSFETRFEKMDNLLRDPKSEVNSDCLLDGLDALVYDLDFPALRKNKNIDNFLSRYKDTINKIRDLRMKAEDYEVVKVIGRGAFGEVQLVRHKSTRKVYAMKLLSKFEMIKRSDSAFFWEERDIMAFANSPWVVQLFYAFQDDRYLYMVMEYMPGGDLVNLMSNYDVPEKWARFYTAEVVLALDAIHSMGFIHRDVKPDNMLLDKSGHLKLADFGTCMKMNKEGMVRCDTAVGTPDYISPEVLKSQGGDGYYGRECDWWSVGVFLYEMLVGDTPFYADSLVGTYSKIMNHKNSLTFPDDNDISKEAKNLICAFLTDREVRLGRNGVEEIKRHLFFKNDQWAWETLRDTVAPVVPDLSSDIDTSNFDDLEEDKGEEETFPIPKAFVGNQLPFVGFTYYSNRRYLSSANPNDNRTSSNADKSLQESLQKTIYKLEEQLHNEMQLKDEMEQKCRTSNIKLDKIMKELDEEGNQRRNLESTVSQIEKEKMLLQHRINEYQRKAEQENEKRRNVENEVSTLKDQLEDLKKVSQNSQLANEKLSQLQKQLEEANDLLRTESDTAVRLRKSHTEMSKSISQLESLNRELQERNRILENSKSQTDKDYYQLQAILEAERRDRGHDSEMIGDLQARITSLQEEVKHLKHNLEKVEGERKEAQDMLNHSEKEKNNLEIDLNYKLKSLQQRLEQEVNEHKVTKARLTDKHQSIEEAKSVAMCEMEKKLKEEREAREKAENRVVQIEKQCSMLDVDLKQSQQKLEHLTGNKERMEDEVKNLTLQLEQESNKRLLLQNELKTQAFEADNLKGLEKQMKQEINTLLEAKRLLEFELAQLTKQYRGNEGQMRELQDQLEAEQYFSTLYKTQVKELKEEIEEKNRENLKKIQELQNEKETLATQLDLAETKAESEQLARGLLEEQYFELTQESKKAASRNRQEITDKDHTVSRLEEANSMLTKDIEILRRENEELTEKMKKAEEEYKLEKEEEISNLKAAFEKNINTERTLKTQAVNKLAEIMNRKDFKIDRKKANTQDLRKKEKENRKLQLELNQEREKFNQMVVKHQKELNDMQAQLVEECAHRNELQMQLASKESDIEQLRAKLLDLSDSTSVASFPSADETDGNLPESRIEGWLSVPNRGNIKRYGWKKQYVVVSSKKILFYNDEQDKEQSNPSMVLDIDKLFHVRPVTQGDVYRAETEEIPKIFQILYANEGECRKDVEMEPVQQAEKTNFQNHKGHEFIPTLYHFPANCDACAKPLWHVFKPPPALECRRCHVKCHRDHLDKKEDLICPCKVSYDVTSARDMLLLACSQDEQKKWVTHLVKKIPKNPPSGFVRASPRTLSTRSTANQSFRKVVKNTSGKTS
TSSK3, sequence (Q96PN8 whole entry): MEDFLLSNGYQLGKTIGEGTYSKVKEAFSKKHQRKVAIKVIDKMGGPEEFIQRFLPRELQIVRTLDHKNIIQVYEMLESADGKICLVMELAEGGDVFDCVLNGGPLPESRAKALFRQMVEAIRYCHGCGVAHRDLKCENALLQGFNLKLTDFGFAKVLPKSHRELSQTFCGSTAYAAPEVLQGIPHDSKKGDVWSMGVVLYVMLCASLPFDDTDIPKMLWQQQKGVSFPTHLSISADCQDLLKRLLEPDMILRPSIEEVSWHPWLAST
T1 sequence (P00519 whole entry F317L): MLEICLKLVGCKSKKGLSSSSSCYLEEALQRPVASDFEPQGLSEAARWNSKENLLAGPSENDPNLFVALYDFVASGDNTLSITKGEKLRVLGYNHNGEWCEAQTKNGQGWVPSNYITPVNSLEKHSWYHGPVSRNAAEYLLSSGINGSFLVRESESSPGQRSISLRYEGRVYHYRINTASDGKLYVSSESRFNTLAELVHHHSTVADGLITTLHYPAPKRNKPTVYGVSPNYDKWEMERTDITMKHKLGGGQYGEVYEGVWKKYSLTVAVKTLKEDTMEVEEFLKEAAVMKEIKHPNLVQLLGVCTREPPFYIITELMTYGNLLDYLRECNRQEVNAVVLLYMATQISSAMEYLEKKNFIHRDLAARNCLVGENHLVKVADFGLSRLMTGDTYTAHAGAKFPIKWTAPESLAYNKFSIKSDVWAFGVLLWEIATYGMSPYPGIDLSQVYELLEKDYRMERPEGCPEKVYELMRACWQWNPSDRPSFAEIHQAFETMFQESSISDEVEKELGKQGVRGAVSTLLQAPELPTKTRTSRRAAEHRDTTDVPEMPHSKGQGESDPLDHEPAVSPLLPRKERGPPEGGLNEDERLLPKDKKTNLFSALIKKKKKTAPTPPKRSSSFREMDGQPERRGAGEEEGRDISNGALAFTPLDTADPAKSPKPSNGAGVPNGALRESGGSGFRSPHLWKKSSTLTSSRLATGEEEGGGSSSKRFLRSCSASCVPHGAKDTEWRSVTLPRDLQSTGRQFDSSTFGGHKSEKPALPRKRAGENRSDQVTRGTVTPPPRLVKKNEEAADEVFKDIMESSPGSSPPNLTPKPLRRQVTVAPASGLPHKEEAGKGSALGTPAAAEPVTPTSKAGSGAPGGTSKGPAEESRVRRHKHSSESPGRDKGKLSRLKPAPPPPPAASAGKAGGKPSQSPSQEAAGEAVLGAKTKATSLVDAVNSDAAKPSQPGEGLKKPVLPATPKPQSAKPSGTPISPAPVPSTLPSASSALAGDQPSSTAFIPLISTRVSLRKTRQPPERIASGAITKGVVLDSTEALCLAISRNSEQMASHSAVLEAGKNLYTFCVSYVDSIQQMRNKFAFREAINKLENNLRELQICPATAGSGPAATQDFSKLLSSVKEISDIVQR
NEK4, sequence (P51957 whole entry): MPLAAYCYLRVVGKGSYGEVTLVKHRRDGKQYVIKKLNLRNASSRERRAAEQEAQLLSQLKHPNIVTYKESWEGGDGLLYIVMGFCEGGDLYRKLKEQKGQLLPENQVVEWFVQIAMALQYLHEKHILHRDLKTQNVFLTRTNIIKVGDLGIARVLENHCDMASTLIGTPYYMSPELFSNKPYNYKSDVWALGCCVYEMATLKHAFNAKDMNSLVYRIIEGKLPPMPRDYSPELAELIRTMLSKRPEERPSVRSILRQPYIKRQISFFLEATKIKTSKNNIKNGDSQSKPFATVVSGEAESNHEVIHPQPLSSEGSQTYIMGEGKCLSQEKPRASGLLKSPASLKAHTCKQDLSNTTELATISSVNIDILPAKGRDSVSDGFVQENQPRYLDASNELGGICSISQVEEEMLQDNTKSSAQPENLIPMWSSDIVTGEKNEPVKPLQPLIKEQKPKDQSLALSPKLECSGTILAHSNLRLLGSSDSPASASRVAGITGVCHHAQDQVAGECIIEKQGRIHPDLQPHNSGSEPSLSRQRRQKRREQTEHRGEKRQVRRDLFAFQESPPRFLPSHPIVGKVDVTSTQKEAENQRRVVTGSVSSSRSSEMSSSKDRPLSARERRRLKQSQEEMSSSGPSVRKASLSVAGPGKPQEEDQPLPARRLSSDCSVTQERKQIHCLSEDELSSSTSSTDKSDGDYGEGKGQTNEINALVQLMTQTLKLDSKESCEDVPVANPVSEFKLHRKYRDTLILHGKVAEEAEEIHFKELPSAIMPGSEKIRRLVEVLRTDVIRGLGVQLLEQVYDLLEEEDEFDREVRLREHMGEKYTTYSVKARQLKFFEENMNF
RET(V804L), sequence (P07949 whole entry V804L): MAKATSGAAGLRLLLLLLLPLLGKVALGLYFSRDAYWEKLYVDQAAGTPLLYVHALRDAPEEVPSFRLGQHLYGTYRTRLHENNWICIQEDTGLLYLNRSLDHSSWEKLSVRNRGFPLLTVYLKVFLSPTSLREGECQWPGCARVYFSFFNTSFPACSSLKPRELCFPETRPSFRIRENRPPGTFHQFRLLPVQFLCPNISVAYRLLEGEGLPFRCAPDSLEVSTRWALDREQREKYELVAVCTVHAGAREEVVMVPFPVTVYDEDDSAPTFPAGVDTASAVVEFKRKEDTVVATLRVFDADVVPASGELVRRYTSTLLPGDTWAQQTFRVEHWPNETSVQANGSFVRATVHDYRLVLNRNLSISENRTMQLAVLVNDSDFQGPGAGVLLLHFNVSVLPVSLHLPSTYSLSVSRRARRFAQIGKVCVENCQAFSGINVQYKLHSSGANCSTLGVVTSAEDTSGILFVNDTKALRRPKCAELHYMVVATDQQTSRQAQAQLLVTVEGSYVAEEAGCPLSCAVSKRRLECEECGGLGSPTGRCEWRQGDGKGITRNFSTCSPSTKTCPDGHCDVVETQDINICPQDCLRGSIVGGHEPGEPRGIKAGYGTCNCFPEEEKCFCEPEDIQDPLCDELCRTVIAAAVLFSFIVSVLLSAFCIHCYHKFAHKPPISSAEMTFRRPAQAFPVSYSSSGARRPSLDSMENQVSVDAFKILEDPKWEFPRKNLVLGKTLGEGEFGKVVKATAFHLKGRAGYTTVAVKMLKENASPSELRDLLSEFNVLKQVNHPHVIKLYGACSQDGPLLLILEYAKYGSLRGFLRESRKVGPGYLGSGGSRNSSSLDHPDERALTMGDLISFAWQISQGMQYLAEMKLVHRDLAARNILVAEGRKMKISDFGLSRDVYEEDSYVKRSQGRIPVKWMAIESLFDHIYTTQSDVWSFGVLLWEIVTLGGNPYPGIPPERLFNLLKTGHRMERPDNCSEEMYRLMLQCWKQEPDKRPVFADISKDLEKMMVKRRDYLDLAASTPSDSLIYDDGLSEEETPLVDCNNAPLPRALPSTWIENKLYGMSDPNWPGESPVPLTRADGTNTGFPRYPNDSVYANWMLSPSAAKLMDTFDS

On to `c1ccc2c(c1)Sc1ccccc1N2CCN1CCOCC1` [J54], for which the remaining binding is 99% in [1]; 92% on CDC2L5; 100% on CSNK1G1; 83% at DRAK2; 92% at EGFR(L747-T751del,Sins); 92% on EGFR(L858R). The remaining binding at GRK1 is 100%; on HUNK it was 58%; at MRCKB, 95%; at NEK4, 100%; on NEK9, 100%; on PAK2, 76%. In addition, the remaining binding at PCTK1 turned out to be 99%; at PRKD1, 97%; at RET(V804L), 88%; at ROCK1, 100%; on TSSK3, 87%; on p38-gamma it was 58%.
